Common to all, as to type: cell-based, human
Assay [1] concerns OPM2-P10. In words: PBMC and MM cell treatment assay (single culture vs co-culture). Conditions: for IC50: Homo sapiens, PBMC, read-out: Immune-mediated Cell Killing IC50. As to the method:
(§1) PBMC and MM Cell Treatment Assay Procedure. Ninety-six-well dishes were pre-coated with anti-CD3 antibody (OKT3, 3 μg/mL) and incubated at 4° C. overnight before the start of the experiment. Frozen PBMC donor cells were thawed at 37° C. for 2 minutes in RPMI medium with 10% FBS and cell counts and viability were measured on the Vi-CELL analyzer. Peripheral blood mononuclear cells were washed and diluted to 1×10^6 cells/mL and dispensed into the compound-treated plates in a total volume of 200 μL. Cells were incubated with compounds for 2 h before being transferred onto anti-CD3-coated plates and incubated for an additional 72 h. At the same time, MM cell lines (NCI-H929, H929-1051, OPM2, OPM2-P10) were diluted to a final concentration of 0.1×10^6 cells/mL and labeled with CellTrace CFSE according to manufacturer's instructions. Multiple myeloma cell lines were then dispensed into compound-treated plates at a total volume of 200 μL and incubated for 72 h. After 72 h, the PBMCs and MM cells were counted and transferred into a U-bottom 96-well plate at a final T:E ratio of 1:5. After 24 h coculture, specific target cell lysis by PBMC cells was measured using Annexin V-AF647 and 7-AAD according to manufacturer's instructions and samples were run on the Attune NxT Cytometer.
(§2) Because preincubation of immune cells with Compound 2 enhanced the targeting and lysing of MM cells, the effect of preincubation of MM cells with Compound 2 on their susceptibility to immune-mediated killing was also explored (FIG. 16A, FIG. 16B, FIG. 16C, and FIG. 16D, Table 12). Four MM cell lines and anti-CD3 antibody-activated PBMCs were separately preincubated with Compound 2, lenalidomide, or pomalidomide for 72 h. When anti-CD3 antibody-activated PBMCs and MM lines were both pretreated with Compound 2, lenalidomide, or pomalidomide, followed by co-culture, the effects on the PBMC-induced MM cell lysis were enhanced both in the potency and magnitude of the killing response. […] For the pomalidomide-resistant OPM2-P10 cell line, Compound 2 treatment of the MM cells enhanced the immune-mediated killing by ˜3000-fold (Table 12).

Assay [2] has as its system H929-1051. Described as above. Conditions: for IC50: Homo sapiens, PBMC, read-out: Immune-mediated Cell Killing IC50. The procedure: as §1, §2
In assay [3] the test system is NCI-H929. Described as above. Conditions: for IC50: Homo sapiens, NCI-H929, NCI-H929, read-out: Immune-mediated Cell Killing IC50. As to the method:
as §1, §2

Assay [4] concerns IM-9. In words: Flow cytometry proliferation/apoptosis assay (120 h). Conditions: for IC50: Homo sapiens, read-out: Antiproliferative Activity (Flow Cytometry) IC50; for induced apoptosis AUC (area under the dose response curve): scale 0-10000. As to the method: (§3) Methods. […] Using 5 mM stocks, compounds were pre-spotted into the appropriate wells of 96-well plates using a Hewlett-Packard D300 Digital Dispenser. Cells were added to 96-well plates using a Multidrop Combi Reagent Dispenser. After 5 days of treatment, flow cytometric analysis was used to determine the number of cells that were alive, dead, or apoptotic. After 5 days of treatment, cells were incubated with annexin V to stain exposed phosphatidylserine, an apoptotic cell-surface marker, and the vital dye 7-AAD, which is excluded from cells with intact cell membranes, and analyzed by flow cytometry (Attune®, Thermo Fisher). Analysis was then performed to determine the number of live cells (annexin V and 7-AAD double negative staining cells) and the percentage of apoptotic cells (annexin V positive cells) for each condition, relative to the DMSO control treated, was calculated. All described values were normalized to DMSO-only treated cells. All proliferation and apoptosis induction curves were processed and graphed as percent of control using XLFit (IDBS, Alameda, CA) and GraphPad Prism 7.03 (GraphPad Software, La Jolla, CA). The live cell count for every concentration was normalized to the DMSO control (considered as 100%) in Microsoft Excel to generate the proliferation curves. […] Similarly, for apoptosis analysis, the percentage of drug-induced apoptosis was calculated for all doses by combining both “early” (annexin V positive and 7-AAD negative) and “late” apoptosis (annexin V and 7-AAD positive) values and subtracting background values (cell treated with vehicle control DMSO). The AUC values for apoptosis curves were calculated by performing area under curve analysis on GraphPad Prism 7.03. The area under the dose-response curve (AUC) was calculated since it integrates potency and efficacy of the drugs to represent apoptosis into a single parameter. The IC50 values for Compound 2 and pomalidomide in the flow cytometry assays are presented Table 9.
(§4) The apoptosis induction effect of Compound 2 was assessed using flow cytometry after 120 h of treatment and compared with pomalidomide treatment. […] Each data point represents 2 independent experiments with at least two samples in each experiment. (Table 10).

In assay [5] the test system is NCI-H929-1051. Described as above. Conditions: for induced apoptosis AUC (area under the dose response curve): H929-1051, scale 0-10000; for IC50: Homo sapiens, NCI-H929-1051, read-out: Antiproliferative Activity (Flow Cytometry) IC50. As to the method:
as §3, §4

Assay [6] deals with EJM. Described as above. Conditions: for IC50: Homo sapiens, read-out: Antiproliferative Activity (Flow Cytometry) IC50; for induced apoptosis AUC (area under the dose response curve): scale 0-10000. The procedure:
as §3, §4

Assay [7] concerns ARH-77. Described as above. Conditions: for IC50: Homo sapiens, read-out: Antiproliferative Activity (Flow Cytometry) IC50; for induced apoptosis AUC (area under the dose response curve): scale 0-10000. As to the method: as §3, §4
In assay [8] the test system is KMS-11. Described as above. Conditions: for IC50: Homo sapiens, read-out: Antiproliferative Activity (Flow Cytometry) IC50; for induced apoptosis AUC (area under the dose response curve): scale 0-10000. As to the method:
as §3, §4

The subject of assay [9] is KMS34. The assay is described as above. Conditions: for IC50: Homo sapiens, KMS-34, KMS34, read-out: Antiproliferative Activity (Flow Cytometry) IC50; for induced apoptosis AUC (area under the dose response curve): KMS-34, scale 0-10000. As to the method:
as §3, §4

For assay [10], the system named is U266. Described as above. Conditions: for IC50: Homo sapiens, U-266, read-out: Antiproliferative Activity (Flow Cytometry) IC50; for induced apoptosis AUC (area under the dose response curve): scale 0-10000. The procedure: as §3, §4
Assay [11] has as its system L363. The description is as above. Conditions: for IC50: Homo sapiens, L-363, read-out: Antiproliferative Activity (Flow Cytometry) IC50; for induced apoptosis AUC (area under the dose response curve): scale 0-10000. The procedure: as §3, §4

Where two headings read alike, the source gives them in different places.

From patent US12029738B2, “Antiproliferative compounds and methods of use thereof” (Celgene Corporation, priority 2017, dated 2024) come the findings set out here.

On to `N#Cc1ccc(N2CCN(Cc3ccc(COc4cccc5c4CN([C@H]4CCC(=O)NC4=O)C5=O)cc3)CC2)c(F)c1` [Compound 2, (S)-4-(4-(4-(((2-(2,6-dioxopiperidin-3-yl)-1-oxoisoindolin-4-yl)oxy)methyl)benzyl)piperazin-1-yl)-3-fluorobenzonitrile], for which, in [1], the “enhancement of immune-mediated killing, co-culture versus single culture IC50” value is approximately 3000 fold. Also, the half-inhibitory concentration (IC50) is 3.1 nM in assay [1] (Co-culture with PBMCs); more than 10000 nM in assay [1] (Single culture); 575 nM in assay [2] (H929-1051, Single culture); 0.1 nM in [2]; 0.087 nM in assay [3] (Co-culture with PBMCs); 581 nM in [3] (Single culture). The concentration for half-maximal inhibition (IC50) in assay [4] is 5570 nM; in assay [5], 0.45 nM; in [6], 0.43 nM; in [7], more than 10000 nM; in assay [8] it was 1.41 nM; in assay [9], 0.45 nM. The IC50 in assay [10] turned out to be 0.19 nM; in assay [11] it was 0.16 nM. Further, the “enhancement of killing, co-culture versus single culture IC50” value in [2] (H929-1051) is approximately 6000 fold; in [3] (NCI-H929), approximately 7000 fold. In addition, the “induced apoptosis AUC (area under the dose response curve)” value (from here on “induced apoptosis AUC”) in [4] is reported as 323.9; in assay [5] it was 3968; in assay [6] it was 2591; in assay [7], 709; in assay [8], 1270; in [9], 1614. Moreover, the “induced apoptosis AUC” value is recorded as 927.8 in assay [10] and 347 in assay [11].
With `Nc1cccc2c1C(=O)N(C1CCC(=O)NC1=O)C2=O` (centres unmarked) [Pomalidomide, pomalidomide], the IC50 was 1180 nM in assay [1] (Co-culture with PBMCs); more than 10000 nM in assay [1] (Single culture); 71.3 nM in [2] (H929-1051, Co-culture with PBMCs); more than 10000 nM in [2] (H929-1051, Single culture); 44.4 nM in assay [3] (Co-culture with PBMCs); more than 10000 nM in assay [3] (Single culture). The IC50 in assay [4] was more than 10000 nM; in assay [5], 1950 nM; in assay [6] it was 2840 nM; in [7] it was more than 10000 nM; in assay [8] it was 5290 nM; in assay [9], more than 10000 nM. Moreover, the results for the IC50 in assay [10] and in assay [11] were 381 nM and more than 10000 nM, respectively. Further, the “induced apoptosis AUC” value in assay [4] is 25.4; in [5] it was 423; in assay [6], 900; in [7], 28.16; in assay [8] it was 234.4; in assay [9], 429.7. Also, the “induced apoptosis AUC” value in [10] turned out to be 373; in [11], 293.
